Results from patent US20030175848A1, “Substituted dithiobisnitrobenzenes and their applications” (Institut Pasteur De Lille, priority 1998, published 2003).
Where two headings read alike, the source gives them in different places.

Assays:
[1] = target: T1, human thioredoxin reductase (hTrxR) (Homo sapiens, UniProt Q16881); assay: Kinetic parameters of substrates with native hTrxR (placenta); format: biochemical; settings: substrate of native hTrxR (placenta), 25° C., buffer A pH 7.25, 0.2 mM NADPH
T1 construct: U of native hTrxR; from tissue; host or cells: human placenta
T1 sequence (Q16881 151-649 limits assumed): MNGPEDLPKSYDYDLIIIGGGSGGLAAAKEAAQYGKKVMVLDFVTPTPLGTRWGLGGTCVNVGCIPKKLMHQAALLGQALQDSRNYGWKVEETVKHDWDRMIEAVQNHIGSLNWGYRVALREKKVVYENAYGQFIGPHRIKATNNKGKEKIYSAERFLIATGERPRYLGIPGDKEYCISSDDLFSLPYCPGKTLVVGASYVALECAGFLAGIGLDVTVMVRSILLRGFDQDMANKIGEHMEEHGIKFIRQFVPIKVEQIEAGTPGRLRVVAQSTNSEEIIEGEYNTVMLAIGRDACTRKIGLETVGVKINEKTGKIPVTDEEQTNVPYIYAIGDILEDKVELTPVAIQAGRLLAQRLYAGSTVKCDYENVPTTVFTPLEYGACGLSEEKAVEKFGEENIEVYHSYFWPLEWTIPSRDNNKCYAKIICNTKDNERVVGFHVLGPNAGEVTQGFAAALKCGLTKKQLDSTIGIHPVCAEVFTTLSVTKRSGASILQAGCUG
Method: The human thioredoxin reductase (hTrxR) is purified from placenta as specified in J. E. Oblong et al., Biochemistry, 1993, 32, 7271-7277.
The enzyme is added to a reaction mixture comprising 100 mM potassium phosphate, 2 mM EDTA, pH 7.4 and 3 mM DTNB; after the addition of 200 μM NADPH, the increase in the absorbence is measured at 412 nm and at 25° C. Using the DTNB test, one TrxR unit is defined as the NADPH-dependent production of […] of 5-thio-2-nitrobenzoate (ε412 nm=13.6 mM^−1.cm^−1). The TrxR concentrations are determined by measuring subunits containing FAD at 450 nm (ε=11.3 mM^−1.cm^−1).

[2] = target: T2, trypanothione reductase from Trypanosoma cruzi (TcTR) (Trypanosoma cruzi, UniProt P28593); assay: Kinetic parameters of substrates with recombinant trypanothione reductase
Method: The TcTR concentration is determined by measuring the number of subunits containing FAD at 461 nm (ε=11.3 mM^−1×cm^−1); the enzymatic activity is tested as specified in (28). One TR unit corresponds to 1 μmol of T(S)2 reduced per minute at 25° C. in a buffer A (20 mM Hepes, pH 7.25 containing 1 mM EDTA and 0.15 M KCl).
The enzyme stock solutions used for the kinetic determinations are pure (verification in SDS-PAGE) and have a specific activity of 137 U/mg in the T(S)2 reduction test performed in the presence of 500 μM NADPH and 518 μM T(S)2 in a buffer A.
All the kinetic studies are carried out in the same buffer at 25° C., in the presence of 200 μM of NADPH.
All the tests were carried out at 25° C. in 20 mM HEPES, 1 Mm EDTA, 150 mM KCl, at pH 7.25 (buffer A) and in the presence of 0.2 mM NADPH.

[3] = target: T2, trypanothione reductase from Trypanosoma cruzi (TcTR); set-up: made in house; host or cells: Escherichia coli SG5 carrying pIBITczTR; settings: cited from earlier work
[4] = target: T1, human thioredoxin reductase (hTrxR); settings: substrate of native hTrxR (placenta), cited from earlier work; for Km: references [29], [38]
[5] = target: T3, thioredoxin reductase from Plasmodium falciparum (PfTrxR) (Plasmodium falciparum, UniProt Q25861); settings: cited from earlier work
T3 construct: made in house; host or cells: E. coli SG5 (glutathione reductase deficient)
T3 sequence (Q25861 1-541): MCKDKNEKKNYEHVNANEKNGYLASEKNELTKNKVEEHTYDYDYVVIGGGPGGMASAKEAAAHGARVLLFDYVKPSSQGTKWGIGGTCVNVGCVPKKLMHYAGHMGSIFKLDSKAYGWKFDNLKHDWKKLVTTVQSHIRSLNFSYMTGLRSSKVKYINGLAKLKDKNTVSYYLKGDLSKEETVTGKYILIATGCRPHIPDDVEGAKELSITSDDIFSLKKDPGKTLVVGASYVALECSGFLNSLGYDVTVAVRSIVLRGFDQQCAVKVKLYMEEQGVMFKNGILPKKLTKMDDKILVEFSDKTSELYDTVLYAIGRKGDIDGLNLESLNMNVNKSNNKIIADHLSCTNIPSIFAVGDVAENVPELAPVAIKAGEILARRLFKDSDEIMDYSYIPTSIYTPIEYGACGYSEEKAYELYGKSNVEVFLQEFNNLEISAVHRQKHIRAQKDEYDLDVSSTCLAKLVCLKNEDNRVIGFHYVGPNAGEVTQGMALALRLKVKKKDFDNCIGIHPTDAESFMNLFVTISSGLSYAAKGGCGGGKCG

[6] = target: T4, Native hTrxR (lung adenocarcinoma cells) (Homo sapiens, UniProt Q16881); settings: substrate of native hTrxR (lung adenocarcinoma cells); reference [22]; cited from earlier work
T4 construct: host or cells: human lung adenocarcinoma cells (endogenous enzyme, purified)
T4 sequence (Q16881 151-649 limits assumed): T1 sequence (Q16881 151-649 limits assumed)

[7] = target: T3, thioredoxin reductase from Plasmodium falciparum (PfTrxR); assay: Kinetic parameters of substrates with recombinant PfTrxR; format: biochemical; settings: substrate of recombinant PfTrxR; 25° C., buffer A pH 7.25, 0.2 mM NADPH
Method: […] Using the DTNB test, one TrxR unit is defined as the NADPH-dependent production of […] of 5-thio-2-nitrobenzoate (ε412 nm=13.6 mM^−1.cm^−1). The TrxR concentrations are determined by measuring subunits containing FAD at 450 nm (ε=11.3 mM^−1.cm^−1).

[8] = substrate of recombinant TcTR, reference [1]
[9] = substrate of recombinant PfTrxR, reference [26]

T2 sequence (P28593 whole entry): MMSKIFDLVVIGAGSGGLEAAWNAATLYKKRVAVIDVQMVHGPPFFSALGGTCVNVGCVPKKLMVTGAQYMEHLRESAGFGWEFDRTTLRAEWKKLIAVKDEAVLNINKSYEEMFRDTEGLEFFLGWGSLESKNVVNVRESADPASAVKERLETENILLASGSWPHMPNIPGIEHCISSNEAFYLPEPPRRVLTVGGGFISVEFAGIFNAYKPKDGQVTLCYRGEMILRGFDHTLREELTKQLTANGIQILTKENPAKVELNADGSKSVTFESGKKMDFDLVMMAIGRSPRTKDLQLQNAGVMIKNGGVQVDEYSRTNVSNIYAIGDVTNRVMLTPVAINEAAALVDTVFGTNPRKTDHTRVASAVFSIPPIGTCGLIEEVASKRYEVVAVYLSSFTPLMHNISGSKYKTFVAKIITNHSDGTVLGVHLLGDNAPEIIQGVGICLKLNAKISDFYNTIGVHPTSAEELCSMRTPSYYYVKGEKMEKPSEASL

In the case of `CN(C)CCCNC(=O)c1cc(SSc2ccc([N+](=O)[O-])c(C(=O)NCCCN(C)C)c2)ccc1[N+](=O)[O-]` [Compound 1], the Km [1] is reported as 7 µM and the “reduction of Km compared with trypanothione disulphide” value ([2]; substrate for TR) is reported as 30%.

For `N[C@@H](CCC(=O)N[C@H]1CSSC[C@H](NC(=O)CC[C@H](N)C(=O)O)C(=O)NCC(=O)NCCCNCCCCNC(=O)CNC1=O)C(=O)O` [TS2, oxidized N^1, N^8-bis(glutathionyl)-spermidine], the Kcat [3, 8] is listed as 240 s⁻¹ and the Km [3, 8] is listed as 45 µM.

In the case of `O=C(O)c1cc(SSc2ccc([N+](=O)[O-])c(C(=O)O)c2)ccc1[N+](=O)[O-]` [DTNB, 5,5′-dithiobis(2-nitrobenzoic) acid], the Kcat ([4]; reference [38]) is listed as 67 s⁻¹, the Km [4] is listed as 400 µM and the Km ([5]; substrate of PfTrxR, stated in text) is listed as roughly 1000 µM. The Kcat [5, 9] was 7 s⁻¹, the Km [5, 9] was 1090 µM and the “suitable as substrate (words spread over the Km, Kcat and Kcat/Km cells)” value ([3]; recombinant TcTR, reference [13]) was “Not”.

In the case of “E. coli Trx: thioredoxin (Trx) of E. coli, substrate of thioredoxin reductase”, the Kcat [6] is listed as 5.6 s⁻¹, the Km [6] is listed as 34 µM and the Km [4] is listed as 20 µM. The Kcat [5, 9] was greater than 5 s⁻¹ and the Km [5, 9] was 66 µM.

For `CN1CCN(C(=O)c2cc(SSc3ccc([N+](=O)[O-])c(C(=O)N4CCN(C)CC4)c3)ccc2[N+](=O)[O-])CC1` [Compound 3], the Kcat [1] was 38 s⁻¹, the Km ([1]; read-out: Km) was 10 µM and the Kcat [7] was 6 s⁻¹. For the same compound, the “suitable as substrate (words spread over the Km, Kcat and Kcat/Km cells)” value ([2]; recombinant TcTR, 25° C., buffer A, 0.2 mM NADPH) was “Not”.
